Results reported in patent US8575349B2, “Derivatives of 1-alkyl-6-oxo-piperidine-3-carboxylic acids and 1-alkyl-5-oxo-pyrrolidine-3-carboxylic acids and their uses as cooling compounds” (International Flavors & Fragrances Inc., priority 2010, dated 2013).

Assays:
Format in all cases: in vivo
[1] = Taste evaluation of the compound in water (cooling effect)
[2] = Hard candy containing the compound: cooling/taste profile over time; conditions: 300 ppm; for overall effect of test candy versus control candy: cherry flavored hard candy; for Profile: hard candy
Method: First, the following formulation was prepared: […]
The above formulation was added to a stainless steel pot. With constant mixing, the formulation temperature was raised to 138° C. The pot was then removed from the heat, allowing cool to 120° C. and 0.7 g of flavor containing the ingredients in equal amounts: benzaldehyde, tolyl aldehyde, ethyl acetate, maltol, Davana oil, methyl heptinyl carbonate and 3 g of citric acid was added. The resulting cherry flavored liquid candy was then deposited into molds, and the molds containing the liquid candy were cooled to room temperature, yielding 600 g of finished hard candy. […] A test candy was further prepared using the above recipe modified by adding 0.18 g of 1-(2-isopropyl-5-methyl-cyclohexyl)-4-(pyrrolidine-1-carbonyl)-pyrrolidin-2-one (Structure VI, 300 ppm) or 1-(2-isopropyl-5-methyl-cyclohexyl)-4-(piperidine-1-carbonyl)-pyrrolidin-2-one (Structure VII, 300 ppm).

[3] = Chewing gum containing the compound: cooling/taste profile over time; conditions: for Profile: gum; for overall effect of test gum versus control gum: orange-flavored gum
Method: The above formulation was prepared in a Sigma mixer. The resultant chewing gum blend was manufactured into strips of 1 inch in width and 0.1 inches in thickness. The strips were subsequently cut into a length of 3 inches each. […] A test gum was further prepared by adding 1-(2-isopropyl-5-methyl-cyclohexyl)-4-(pyrrolidine-1-carbonyl)-pyrrolidin-2-one (Structure VI, 800 ppm) or 1-(2-isopropyl-5-methyl-cyclohexyl)-4-(piperidine-1-carbonyl)-pyrrolidin-2-one (Structure VII, 1200 ppm).

In the case of `COC(=O)C1CC(=O)N(C2CC(C)CCC2C(C)C)C1` (stereo not shown) [Structure I, 1-(2-isopropyl-5-methyl-cyclohexyl)-5-oxo-pyrrolidine-3-carboxylic acid methyl ester], the “taste description / cooling effect” value ([1]; 10 ppm in water) is reported as “mild cooling effect”.

In the case of `CC1CCC(C(C)C)C(N2CC(C(=O)O)CC2=O)C1` (stereo not shown) [Structure II, 1-(2-isopropyl-5-methyl-cyclohexyl)-5-oxo-pyrrolidine-3-carboxylic acid], the “taste description / cooling effect” value ([1]; 10 ppm in water) is reported as “some cooling effect developed in the back of throat”.

In the case of `CC(C)CNC(=O)C1CC(=O)N(C2CC(C)CCC2C(C)C)C1` (stereo not shown) [Structure III, 1-(2-isopropyl-5-methyl-cyclohexyl)-5-oxo-pyrrolidine-3-carboxylic acid isobutyl-amide], the “taste description / cooling effect” value ([1]; 10 ppm in water) is reported as “mild cooling effect”.

With `CCN(C)C(=O)C1CC(=O)N(C2CC(C)CCC2C(C)C)C1` (stereo not shown) [Structure IV, 1-(2-isopropyl-5-methyl-cyclohexyl)-5-oxo-pyrrolidine-3-carboxylic acid ethyl-methyl-amide] the “taste description / cooling effect” value ([1]; 10 ppm in water) was “mild cooling effect”.

In the case of `COC(=O)C1CC(=O)N(C2CCCCC2C)C1` (stereo not shown) [Structure IX, 1-(2-methyl-cyclohexyl)-5-oxo-pyrrolidine-3-carboxylic acid methyl ester], the “taste description / cooling effect” value ([1]; 40 ppm in water) is reported as “slight upfront bitterness for ˜20-30 seconds and mild cooling effect that slightly built up in a few minutes”.

In the case of `CC1CCC(C(C)C)C(N2CC(C(=O)N3CCC3)CC2=O)C1` (stereo not shown) [Structure V, 4-(azetidine-1-carbonyl)-1-(2-isopropyl-5-methyl-cyclohexyl)-pyrrolidin-2-one], the “taste description / cooling effect” value ([1]; 40 ppm in water) is reported as “mild cooling, earthy, off-flavor, not bitter, napthalene, herbaceous, slight tingle effect on the tip of tongue, and garden hose, carrot, astringent, and waxy effect”.

With `CC1CCC(C(C)C)C(N2CC(C(=O)N3CCCC3)CC2=O)C1` (stereo not shown) [Structure VI, 1-(2-isopropyl-5-methyl-cyclohexyl)-4-(pyrrolidine-1-carbonyl)-pyrrolidin-2-one] the “overall effect of test candy versus control candy” value [2] was “substantial cooling effect”, the Profile ([2]; at 0-1 minute) was “At 0-1 minute: cooling with slight bitterness;” and the Profile ([2]; at 1-3 minutes) was “At 1-3 minutes: cooling built up;”. The Profile ([2]; at 3-5 minutes) was “At 3-5 minutes: cooling on the roof of mouth;”, the Profile ([2]; at 5-10 minutes) was “At 5-10 minutes: cooling with some bitterness;” and the Profile ([2]; at 10-20 minutes) was “At 10-20 minutes: cooling with mild bitterness;”. The Profile ([2]; at 20-30 minutes) was “At 20-30 minutes: cooling remained”, the Profile ([3]; 800 ppm, at 1-3 minutes) was “At 1-3 minutes: cooling delocalized on the tongue;” and the Profile ([3]; 800 ppm, at 3-5 minutes) was “At 3-5 minutes: mild cooling located on the tongue;”. For the same molecule, the Profile ([3]; 800 ppm, at 5-10 minutes) was “At 5-10 minutes: moderate cooling on the tongue and the roof”, the Profile ([3]; 800 ppm, at 20-30 minutes) was “At 20-30 minutes: clean sensation with a little bitterness” and the “overall effect of test gum versus control gum” value ([3]; 800 ppm) was “pleasant cooling effect”. The “taste description / cooling effect” value ([1]; 10 ppm in water) was “mild cooling effect with slight bitterness, the cooling effect built up over the time” and the “taste description / cooling effect” value ([1]; 50 ppm in water) was “cooling effect with bitterness, a menthol-like burning taste, and a nice built-up cooling taste”.

For `CC1CCC(C(C)C)C(N2CC(C(=O)N3CCCCC3)CC2=O)C1` (stereo not shown) [Structure VII, 1-(2-isopropyl-5-methyl-cyclohexyl)-4-(piperidine-1-carbonyl)-pyrrolidin-2-one], the “overall effect of test candy versus control candy” value [2] was “substantial cooling effect”, the Profile ([2]; at 0-1 minute) was “At 0-1 minute: bitterness;” and the Profile ([2]; at 1-3 minutes) was “At 1-3 minutes: cooling breath, strong cooling;”. For the same molecule, the Profile ([2]; at 3-5 minutes) was “At 3-5 minutes: intense cooling;”, the Profile ([2]; at 5-10 minutes) was “At 5-10 minutes: intense cooling throughout mouth;” and the Profile ([2]; at 10-20 minutes) was “At 10-20 minutes: very strong cooling, almost burning;”. For the same molecule, the Profile ([2]; at 20-30 minutes) was “At 20-30 minutes: strong and lasting cooling”, the Profile ([3]; 1200 ppm, at 0-1 minute) was “At 0-1 minute: cooling onset, throat and slight tongue irritation,” and the Profile ([3]; 1200 ppm, at 1-3 minutes) was “At 1-3 minutes: cooling and irritation delocalized with some”. For the same molecule, the Profile ([3]; 1200 ppm, at 3-5 minutes) was “At 3-5 minutes: full mouth cooling, throughout mouth but not”, the Profile ([3]; 1200 ppm, at 5-10 minutes) was “At 5-10 minutes: strong cooling in mouth, concentrated in the” and the Profile ([3]; 1200 ppm, at 10-20 minutes) was “At 10-20 minutes: cooling peaked, consistent without any”. The Profile ([3]; 1200 ppm, at 20-30 minutes) was “At 20-30 minutes: strong cooling in mouth and throat,”, the “overall effect of test gum versus control gum” value ([3]; 1200 ppm) was “pleasant cooling effect” and the “taste description / cooling effect” value ([1]; 40 ppm in water) was “slight upfront bitterness, herbaceous flavor, and built-up cooling effect”.

In the case of `CC1CCC(C(C)C)C(N2CC(C(=O)N3CCCCCC3)CC2=O)C1` (stereo not shown) [Structure VIII, 4-(azepane-1-carbonyl)-1-(2-isopropyl-5-methyl-cyclohexyl)-pyrrolidin-2-one], the “taste description / cooling effect” value ([1]; 40 ppm in water) is reported as “bitterness and cooling effect and both built up”.

For `CC(C)(C)C1CCCCC1N1CC(C(=O)N2CCCC2)CC1=O` (stereo not shown) [Structure X, 1-(2-tert-butyl-cyclohexyl)-4-(pyrrolidine-1-carbonyl)-pyrrolidin-2-one], the “taste description / cooling effect” value ([1]; 40 ppm in water) was “upfront bitterness, quinine, drying, greasy, and burning effect”.

In the case of `CC(C)(C)C1CCCCC1N1CC(C(=O)N2CCCCC2)CC1=O` (stereo not shown) [Structure XI, 1-(2-tert-butyl-cyclohexyl)-4-(piperidine-1-carbonyl)-pyrrolidin-2-one], the “taste description / cooling effect” value ([1]; 40 ppm in water) is reported as “some bitterness and drying, powdery, and minimal cooling effect”.

In the case of `CC1CCC(C(C)C)C(N2CC(C(=O)N3CCCC3)CCC2=O)C1` (stereo not shown) [Structure XII, 1-(2-isopropyl-5-methyl-cyclohexyl)-5-(pyrrolidine-1-carbonyl)-piperidin-2-one], the “taste description / cooling effect” value ([1]; 40 ppm in water) is reported as “slight cooling, and bitter and drying effect”.

For `CC1CCC(C(C)C)C(N2CC(C(=O)N3CCCCC3)CCC2=O)C1` (stereo not shown) [Structure XIII, 1-(2-isopropyl-5-methyl-cyclohexyl)-5-(piperidine-1-carbonyl)-piperidin-2-one], the “taste description / cooling effect” value ([1]; 40 ppm in water) was “grapefruit-like bitterness, and very mild cooling and drying effect”.
